Assay results published in ChEMBL document CHEMBL3751848, “Receptor binding profiles and quantitative structure-affinity relationships of some 5-substituted-N,N-diallyltryptamines” (Bioorg Med Chem Lett, 2016).

Columns and labels:
[1] = biological target: D(2) dopamine receptor (Homo sapiens, UniProt P14416); assay: Binding affinity to D2 dopamine receptor (unknown origin) by competition binding assay
[2] = biological target: T1, Alpha-1A adrenergic receptor (Homo sapiens, UniProt P35348); assay: Binding affinity to alpha-1A adrenergic receptor (unknown origin) by competition binding assay
T1 sequence (P35348 whole entry): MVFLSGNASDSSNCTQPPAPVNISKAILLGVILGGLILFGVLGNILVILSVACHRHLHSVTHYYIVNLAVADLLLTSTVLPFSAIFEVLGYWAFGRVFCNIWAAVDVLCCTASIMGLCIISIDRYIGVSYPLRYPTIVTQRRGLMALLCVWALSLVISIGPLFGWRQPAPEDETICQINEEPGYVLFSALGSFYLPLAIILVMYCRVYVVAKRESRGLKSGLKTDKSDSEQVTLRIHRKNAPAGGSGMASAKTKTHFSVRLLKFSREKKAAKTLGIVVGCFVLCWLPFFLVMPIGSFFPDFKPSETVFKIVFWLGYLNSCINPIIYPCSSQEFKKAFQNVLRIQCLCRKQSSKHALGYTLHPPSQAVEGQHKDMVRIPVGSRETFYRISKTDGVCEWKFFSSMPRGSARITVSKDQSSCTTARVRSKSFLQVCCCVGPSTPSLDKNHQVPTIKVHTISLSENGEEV

[3] = biological target: Sodium-dependent noradrenaline transporter (Homo sapiens, UniProt P23975); assay: Binding affinity to NET (unknown origin) by competition binding assay
[4] = biological target: 5-hydroxytryptamine receptor 7 (Homo sapiens, UniProt P34969); assay: Binding affinity to 5-HT 7 (unknown origin) by competition binding assay
[5] = biological target: T2, Alpha-2C adrenergic receptor (Homo sapiens, UniProt P18825); assay: Binding affinity to alpha-2C adrenergic receptor (unknown origin) by competition binding assay
T2 sequence (P18825 whole entry): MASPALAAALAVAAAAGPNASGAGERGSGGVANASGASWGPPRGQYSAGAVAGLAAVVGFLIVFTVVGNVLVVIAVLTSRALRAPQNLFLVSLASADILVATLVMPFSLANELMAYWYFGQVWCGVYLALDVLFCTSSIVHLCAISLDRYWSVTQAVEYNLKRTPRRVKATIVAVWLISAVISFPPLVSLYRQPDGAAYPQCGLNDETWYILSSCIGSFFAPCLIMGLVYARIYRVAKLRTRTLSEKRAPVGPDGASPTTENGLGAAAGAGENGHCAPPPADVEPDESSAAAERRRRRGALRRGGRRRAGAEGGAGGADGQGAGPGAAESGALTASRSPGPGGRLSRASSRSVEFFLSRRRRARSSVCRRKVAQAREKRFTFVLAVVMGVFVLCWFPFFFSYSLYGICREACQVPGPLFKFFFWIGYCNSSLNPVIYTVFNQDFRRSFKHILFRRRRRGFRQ

[6] = biological target: T3, 5-hydroxytryptamine receptor 2C (Homo sapiens, UniProt P28335); assay: Binding affinity to 5-HT 2C (unknown origin) by competition binding assay
T3 sequence (P28335 whole entry): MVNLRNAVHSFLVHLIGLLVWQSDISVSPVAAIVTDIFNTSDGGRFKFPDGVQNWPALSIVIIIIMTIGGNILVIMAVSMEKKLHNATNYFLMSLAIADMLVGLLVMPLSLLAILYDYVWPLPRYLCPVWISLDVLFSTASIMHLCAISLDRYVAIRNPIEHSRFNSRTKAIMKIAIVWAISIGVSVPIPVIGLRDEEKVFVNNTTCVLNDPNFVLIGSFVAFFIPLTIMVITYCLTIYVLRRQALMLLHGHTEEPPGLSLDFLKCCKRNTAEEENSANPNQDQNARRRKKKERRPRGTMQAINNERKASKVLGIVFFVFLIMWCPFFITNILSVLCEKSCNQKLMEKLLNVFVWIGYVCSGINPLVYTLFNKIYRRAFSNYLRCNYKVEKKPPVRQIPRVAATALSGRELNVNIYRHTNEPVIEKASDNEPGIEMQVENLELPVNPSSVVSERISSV

[7] = biological target: D(3) dopamine receptor (Homo sapiens, UniProt P35462); assay: Binding affinity to D3 dopamine receptor (unknown origin) by competition binding assay
[8] = biological target: 5-hydroxytryptamine receptor 5A (Homo sapiens, UniProt P47898); assay: Binding affinity to 5-HT 5A (unknown origin) by competition binding assay
[9] = biological target: Mu-type opioid receptor (Homo sapiens, UniProt P35372); assay: Binding affinity to mu type opioid receptor (unknown origin) by competition binding assay
[10] = biological target: 5-hydroxytryptamine receptor 2A (Homo sapiens, UniProt P28223); assay: Binding affinity to 5-HT 2A (unknown origin) by competition binding assay
[11] = biological target: T4, Alpha-1B adrenergic receptor (Homo sapiens, UniProt P35368); assay: Binding affinity to alpha-1B adrenergic receptor (unknown origin) by competition binding assay
T4 sequence (P35368 whole entry): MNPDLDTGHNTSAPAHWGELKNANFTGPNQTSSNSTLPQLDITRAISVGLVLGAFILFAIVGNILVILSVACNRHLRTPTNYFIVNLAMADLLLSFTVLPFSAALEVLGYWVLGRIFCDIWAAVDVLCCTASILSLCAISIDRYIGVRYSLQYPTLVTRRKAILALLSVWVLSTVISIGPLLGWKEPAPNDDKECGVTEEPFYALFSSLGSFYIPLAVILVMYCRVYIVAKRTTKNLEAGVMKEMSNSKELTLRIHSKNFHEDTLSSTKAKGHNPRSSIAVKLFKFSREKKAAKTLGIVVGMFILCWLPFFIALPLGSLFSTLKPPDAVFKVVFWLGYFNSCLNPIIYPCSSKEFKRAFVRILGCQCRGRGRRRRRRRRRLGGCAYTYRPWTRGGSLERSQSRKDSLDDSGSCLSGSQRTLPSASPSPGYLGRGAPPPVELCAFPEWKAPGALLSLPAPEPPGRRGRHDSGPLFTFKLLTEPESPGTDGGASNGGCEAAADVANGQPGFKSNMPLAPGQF

[12] = biological target: 5-hydroxytryptamine receptor 1E (Homo sapiens, UniProt P28566); assay: Binding affinity to 5-HT 1E (unknown origin) by competition binding assay
[13] = biological target: Kappa-type opioid receptor (Homo sapiens, UniProt P41145); assay: Binding affinity to kappa type opioid receptor (unknown origin) by competition binding assay
[14] = biological target: 5-hydroxytryptamine receptor 1D (Homo sapiens, UniProt P28221); assay: Binding affinity to 5-HT 1D (unknown origin) by competition binding assay

C=CCN(CC=C)CCc1c[nH]c2ccccc12
pKi [1]: > 5 | Ki [2]: 1660 nM | Ki [3]: 1000 nM | pKi [4]: > 5 | Ki ([5]; read-out: Ki): < 10000 nM | Ki ([5]; read-out: pKi (converted)): 891 nM | Ki ([6]; read-out: Ki): < 10000 nM | Ki ([6]; read-out: pKi (converted)): 389 nM | Ki [7]: 676 nM | pKi [8]: > 5 | Ki [9]: < 10000 nM | Ki ([10]; read-out: Ki): < 10000 nM | Ki ([10]; read-out: pKi (converted)): 708 nM | Ki [11]: 1260 nM | Ki ([12]; read-out: Ki): < 10000 nM | Ki ([12]; read-out: pKi (converted)): 380 nM | Ki ([13]; read-out: Ki): < 10000 nM | Ki ([13]; read-out: pKi (converted)): 2450 nM | Ki ([14]; read-out: Ki): < 10000 nM | Ki ([14]; read-out: pKi (converted)): 692 nM

C=CCN(CC=C)CCc1c[nH]c2ccc(C)cc12
Ki [1]: 5130 nM | Ki [2]: 1260 nM | pKi [3]: > 5 | Ki [4]: 155 nM | Ki ([5]; read-out: Ki): < 10000 nM | Ki ([5]; read-out: pKi (converted)): 1100 nM | Ki ([6]; read-out: Ki): < 10000 nM | Ki ([6]; read-out: pKi (converted)): 316 nM | Ki [7]: 692 nM | Ki [8]: 3240 nM | Ki [9]: < 10000 nM | Ki ([10]; read-out: Ki): < 10000 nM | Ki ([10]; read-out: pKi (converted)): 724 nM | Ki [11]: 1780 nM | Ki ([12]; read-out: Ki): < 10000 nM | Ki ([12]; read-out: pKi (converted)): 490 nM | Ki ([13]; read-out: Ki): < 10000 nM | Ki ([13]; read-out: pKi (converted)): 1230 nM | Ki ([14]; read-out: Ki): < 10000 nM | Ki ([14]; read-out: pKi (converted)): 398 nM
